This note sets out measurements from ChEMBL document CHEMBL6092215, “A Prostate-Specific Membrane Antigen-Targeting Small Molecule-Drug Conjugate Strategy to Overcome the Hematological Toxicity of Olaparib” (J Med Chem, 2024).

Activity calls are given as the source filed them. No cut-off for these calls is given here.

Series [1] in a line: Toxicity in male BALB/c nude mouse xenografted with human 22Rv1 cells assessed as decrease in red blood cells at 100 mg/kg administered via gavage by routine blood test. In kind it is organism-based. The note with it: in vivo, po. In general terms: In xenograft studies the graft and the host belong to different species.
Series [2] in a line: Subacute toxicity in male ICR mouse assessed as decrease in WBC level at 100 mg/kg, po administered via gavage for 30 days by blood routine test relative to control. The arrangement: scale not given: the % may be the effect or the level left. The note with it: in vivo, 720 h, time 30 day. The series is classed as organism-based.
Series [3] in a line: Subacute toxicity in male ICR mouse assessed as decrease in lymphocytes level at 100 mg/kg, po administered via gavage for 30 days by blood routine test relative to control. The series is classed as organism-based. Also noted: scale not given: the % may be the effect or the level left. The note with it: in vivo, 720 h, time 30 day.
Series [4] is described as follows: Drug uptake in PSMA positive human 22Rv1 cells at 10 uM measured after 1 to 6 hrs by LC-MS/MS analysis. In kind it is ADME, cell-based. The note with it: cwr22r, time 1-6 hrs.
A short description of series [5]: Toxicity in male BALB/c nude mouse xenografted with human 22Rv1 cells assessed as decrease in hemoglobin at 100 mg/kg administered via gavage by routine blood test. The settings on record: in vivo, po. In kind it is organism-based.
Series [6] concerns CWR22R. Kind of series: Antitumor activity against human 22Rv1 cells xenografted in male BALB/c nude mouse assessed as tumor growth inhibition at 100 mg/kg administered via gavage relative to control. The series is classed as functional. The settings on record: 22Rv1, po, read-out: TGI.
A further series relates to PC-3. Kind of series: Antiproliferative activity against PSMA negative human PC-3 cells assessed as effect on cell viability incubated for 72 hrs by MTT assay. The series is classed as functional. On the technique in general: Tetrazolium dyes change colour on reduction, which living cells bring about.
The nature of series [7]: Subacute toxicity in male ICR mouse assessed as decrease in neutrophil level at 100 mg/kg, po administered via gavage for 30 days by blood routine test relative to control. In kind it is organism-based. The arrangement: scale not given: the % may be the effect or the level left. The settings on record: in vivo, 720 h, time 30 day.
Series [8] is described as follows: Antiproliferative activity against PSMA negative human RWPE-1 cells assessed as effect on cell viability incubated for 72 hrs by MTT assay. The settings on record: RWPE-1 cells (PSMA negative). In kind it is toxicity, cell-based.
In series [9] the test system is CWR22R. Put plainly: Induction of DNA damage in human 22Rv1 cells assessed as increase in number of gamma-H2AX foci at 100 uM incubated for 12 hrs by DAPI staining based immunofluorescence analysis. The series is classed as functional, cell-based.
The nature of series [10]: Drug uptake in PSMA negative human PC-3 cells at 10 uM measured after 1 to 6 hrs by LC-MS/MS analysis. The note with it: pc-3, 10 µM, time 1-6 hrs. The series is classed as ADME, cell-based.
The nature of series [11]: Subacute toxicity in male ICR mouse assessed as decrease in hemoglobin level at 100 mg/kg, po administered via gavage for 30 days by blood routine test relative to control. In kind it is organism-based. The arrangement: scale not given: the % may be the effect or the level left. The settings on record: in vivo, 720 h, time 30 day.
Series [12] has as its system CWR22R. Kind of series: Antiproliferative activity against human 22Rv1 cells assessed as reduction in cell viability at 125 uM in presence of DUPA. The series is classed as functional, cell-based.
The nature of series [13]: Subacute toxicity in male ICR mouse assessed as decrease in red blood cells at 100 mg/kg, po administered via gavage for 30 days by blood routine test relative to control. In kind it is organism-based. The arrangement: scale not given: the % may be the effect or the level left. The note with it: in vivo, 720 h, time 30 day.
Series [14] has as its system CWR22R. Put plainly: Antiproliferative activity against human 22Rv1 cells with high PSMA expression assessed as effect on cell viability incubated for 72 hrs by MTT assay. The note with it: 22Rv1, 72 h. In kind it is functional, cell-based.
Series [15] can be described thus: Subacute toxicity in male ICR mouse assessed as decrease in body weight at 100 mg/kg, po administered via gavage for 30 days relative to control. The series is classed as organism-based. Also noted: scale not given: the % may be the effect or the level left. The note with it: in vivo, 720 h, time 30 day.
Series [16] in a line: Toxicity in male BALB/c nude mouse xenografted with human 22Rv1 cells assessed as decrease in lymphocytes at 100 mg/kg administered via gavage by routine blood test. The series is classed as organism-based. The note with it: in vivo, po.
Series [17] in a line: Toxicity in male BALB/c nude mouse xenografted with human 22Rv1 cells assessed as decrease in body weight at 100 mg/kg administered via gavage. The series is classed as organism-based. The settings on record: in vivo, po.
In another series the test system is LNCaP. Put plainly: Antiproliferative activity against human LNCaP cells with high PSMA expression assessed as effect on cell viability incubated for 72 hrs by MTT assay. In kind it is functional, cell-based.
Series [18] is described as follows: Toxicity in male BALB/c nude mouse xenografted with human 22Rv1 cells assessed as decrease in granulocytes at 100 mg/kg administered via gavage by routine blood test. In kind it is organism-based. The settings on record: in vivo, po.
Series [19] concerns CWR22R. Kind of series: Antitumor activity against human 22Rv1 cells xenografted in male BALB/c nude mouse at 100 mg/kg administered via gavage. In kind it is functional, organism-based.
Series [20] can be described thus: Subacute toxicity in male ICR mouse assessed as decrease in hematocrit level at 100 mg/kg, po administered via gavage for 30 days by blood routine test relative to control. Also noted: scale not given: the % may be the effect or the level left. In kind it is organism-based. The settings on record: in vivo, 720 h, time 30 day.

For orientation: CC50 means the concentration that lowers cell viability or growth by half. Usually IC50 stands for the midpoint of a concentration-inhibition curve. Regarding `O=C(c1cc(Cc2n[nH]c(=O)c3ccccc23)ccc1F)N1CCN(C(=O)C2CC2)CC1` [OLAPARIB], the Activity entry is on record as “Toxic” in series [1]; 28.12% in [2]; 32.71% in [3]; “Toxic” in series [5]; 10.4% in [7]; 11.69% in series [11]. Moreover, the Activity entry is “Active; Drug Mode Of Action Appears To Be Independent Of Binding To Psma Receptor” with CWR22R [12]; 15.73% in series [13]; 8% in series [15]; “Toxic” in series [16]; “Non-toxic” in series [17]; “Toxic” in [18]. Besides, the Activity in [20] worked out at 12.82%. Moreover, the Drug uptake result in series [4] and in [10] was “Active” throughout. Further, the inhibition in vivo at 100 mg/kg in the series with CWR22R [6] stood at 61%. In the series with PC-3, the cytotoxic concentration (CC50) was determined as 91.5 µM. The CC50 at 72 h in series [8] turned out to be 85.5 µM. Moreover, the result in the series with CWR22R [9] and in the series with CWR22R [19] was Active. The IC50 with CWR22R [14] was found to be 61.6 µM; in the series on LNCaP, 56.5 µM.
